# In patent US5981576A, “(Methylsulfonyl)phenyl-2-(5H)-furanones as COX-2 inhibitors” (Merck Frosst Canada, Inc., priority 1998, dated 1999):
# Target: T1, COX-2 (Homo sapiens, UniProt P35354)
# T1 sequence (P35354 18-604): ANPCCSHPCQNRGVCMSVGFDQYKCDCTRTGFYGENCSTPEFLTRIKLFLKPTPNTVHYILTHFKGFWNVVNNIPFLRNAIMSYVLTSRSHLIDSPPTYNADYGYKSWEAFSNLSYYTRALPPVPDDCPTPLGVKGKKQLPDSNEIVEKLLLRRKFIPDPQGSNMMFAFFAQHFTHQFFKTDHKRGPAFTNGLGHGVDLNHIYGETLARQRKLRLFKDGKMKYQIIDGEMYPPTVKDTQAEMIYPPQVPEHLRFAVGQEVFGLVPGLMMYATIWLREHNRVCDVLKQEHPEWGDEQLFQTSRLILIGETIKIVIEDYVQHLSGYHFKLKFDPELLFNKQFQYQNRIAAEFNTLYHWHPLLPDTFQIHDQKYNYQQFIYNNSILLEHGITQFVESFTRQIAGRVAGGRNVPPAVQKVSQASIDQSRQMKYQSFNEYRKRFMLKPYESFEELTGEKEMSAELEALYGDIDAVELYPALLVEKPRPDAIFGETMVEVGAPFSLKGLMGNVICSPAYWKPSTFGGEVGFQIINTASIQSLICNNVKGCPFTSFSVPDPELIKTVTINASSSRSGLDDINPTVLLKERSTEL
# Assay: cell-based
# Settings: Table IV; CHO[hCOX-2] cells, 10 μM AA
# Procedure: Chinese hamster ovary (CHO) cell lines which have been stably transfected with an eukaryotic expression vector pCDNAIII containing either the human COX-1 or COX-2 cDNA's are used for the assay. These cell lines are referred to as CHO [hCOX-1] and CHO [hCOX-2], respectively. […] Cells (0.3×10^6 cells in 200 μl) are preincubated with 3 μl of the test drug or DMSO vehicle for 15 min at 37° C. […] Cells are then challenged in the presence or absence of drug with the AA/HBSS solution to yield a final concentration of 0.5 μM AA in the CHO[hCOX-1] assay and a final concentration of 10 μM AA in the CHO[hCOX-2] assay. […] The samples are centrifuged at 300×g at 4° C. for 10 min, and an aliquot of the clarified supernatant is appropriately diluted for the determination of PGE2 levels using an enzyme-linked immunoassay for PGE2 (Correlate PGE2 enzyme immunoassay kit, Assay Designs, Inc.). Cyclooxygenase activity in the absence of test compounds is determined as the difference in PGE2 levels of cells challenged with arachidonic acid versus the PGE2 levels in cells mock-challenged with ethanol vehicle. Inhibition of PGE2 synthesis by test compounds is calculated as a percentage of the activity in the presence of drug versus the activity in the positive control samples.
row,Structure (SMILES),IC50
1,CC1(C)OC(=O)C(Oc2cccc(C(F)(F)F)c2)=C1c1ccc(S(C)(=O)=O)cc1 [Example 110],> 5 µM
2,Cc1ncc(OC2=C(c3ccc(S(C)(=O)=O)cc3)C(C)(C)OC2=O)cc1Br [Example 137],0.55 µM
3,CC1(C)OC(=O)C(Oc2ccc(C(C)(C)O)cc2)=C1c1ccc(S(C)(=O)=O)cc1 [Example 191],0.98 µM

# Target: T1, COX-2
# Assay: cell-based
# Settings: Table IV; human whole blood, LPS-induced PGE2; read-out: COX-2 (IC50, μM) HWB
# From the text: (§1) As well, platelets in whole blood contain a large amount of the COX-1 enzyme. Immediately following blood clotting, platelets are activated through a thrombin-mediated mechanism. […] Therefore, the degree of selectivity by the test compound can be determined by measuring the levels of PGE2 after LPS induction (COX-2) and TxB2 following blood clotting (COX-1) in the same assay.
# A. COX-2 (LPS-induced PGF, production)
# Fresh blood is collected in heparinized tubes by venipuncture from both male and female volunteers. The subjects have no apparent inflammatory conditions and have not taken any NSAIDs for at least 7 days prior to blood collection. Plasma is immediately obtained from a 2 mL blood aliquot to use as blank (basal levels of PGE2).
row,Structure (SMILES),IC50
1,"C[C@]1(CC(F)(F)F)OC(=O)C(Oc2ccc(Cl)cn2)=C1c1ccc(S(C)(=O)=O)cc1 [Example 130, (5R)-3-(5-Chloro-2-pyridyloxy)-5-methyl-4-(4-methylsulfonyl)phenyl-5-(2,2,2-trifluoroethyl)-5H-furan-2-one]",< 0.41 µM
2,Cc1ncc(OC2=C(c3ccc(S(C)(=O)=O)cc3)C(C)(C)OC2=O)cc1Br [Example 137],5.2 µM
3,CC1(COC2=C(c3ccc(S(C)(=O)=O)cc3)C(C)(C)OC2=O)CC1 [Example 173],< 0.41 µM
4,CC1(C)OC(=O)C(Oc2ccc(C(C)(C)O)cc2)=C1c1ccc(S(C)(=O)=O)cc1 [Example 191],4.3 µM

# Target: T2, COX-1 (Homo sapiens, UniProt P23219)
# T2 sequence (P23219 24-599): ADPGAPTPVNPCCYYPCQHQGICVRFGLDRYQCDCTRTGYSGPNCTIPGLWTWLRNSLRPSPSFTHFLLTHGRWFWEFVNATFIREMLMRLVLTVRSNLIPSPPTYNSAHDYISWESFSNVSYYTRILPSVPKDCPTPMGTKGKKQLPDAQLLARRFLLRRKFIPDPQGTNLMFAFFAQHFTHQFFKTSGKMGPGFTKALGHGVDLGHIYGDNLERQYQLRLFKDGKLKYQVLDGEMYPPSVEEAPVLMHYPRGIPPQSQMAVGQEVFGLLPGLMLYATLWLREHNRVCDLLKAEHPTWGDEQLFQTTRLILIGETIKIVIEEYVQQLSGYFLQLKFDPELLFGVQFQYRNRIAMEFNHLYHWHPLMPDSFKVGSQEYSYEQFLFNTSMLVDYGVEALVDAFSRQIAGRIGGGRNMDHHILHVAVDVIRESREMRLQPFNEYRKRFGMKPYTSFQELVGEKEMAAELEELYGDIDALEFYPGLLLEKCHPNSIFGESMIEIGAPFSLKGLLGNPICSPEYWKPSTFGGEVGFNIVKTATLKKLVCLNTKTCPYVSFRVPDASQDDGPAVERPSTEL
# Assay: biochemical
# Format: biochemical
# Settings: Table III; U937
# Procedure: Compounds are tested as inhibitors of cyclooxygenase activity in whole cell cyclooxygenase assays. Both of these assays measure prostaglandin E2 synthesis in response to arachidonic acid, using a radioimmunoassay. Cells used for these assays are human osteosarcoma 143 cells (which specifically express COX-2) and human U-937 cells (which specifically express COX-1). In these assays, 100% activity is defined as the difference between prostaglandin E2 synthesis in the absence and presence of arachidonate.
# U 937 cells are pelleted by centrifugation at 500×g for 5 min and washed once with phosphate-buffered saline and repelleted. Cells are resuspended in homogenization buffer consisting of 0.1 M Tris-HCl, pH 7.4, 10 mM EDTA, 2 μg/ml leupeptin, 2 μg/ml soybean trypsin inhibitor, 2 μg/ml aprotinin and 1 mM phenyl methyl sulfonyl fluoride. The cell suspension is sonicated 4 times for 10 sec and is centrifuged at 10,000×g for 10 min at 4° C. The supernatant is centrifuged at 100,000×g for 1 hr at 4 ° C. The 100,000×g microsomal pellet is resuspended in 0.1 M Tris-HCl, pH 7.4, 10 mM EDTA to approximately 7 mg protein/ml and stored at -80° C.
# Microsomal preparations are thawed immediately prior to use, subjected to a brief sonication, and then diluted to a protein concentration of 125 μg/ml in 0.1 M Tris-HCl buffer, pH 7.4 containing 10 mM EDTA, 0.5 mM phenol, 1 mM reduced glutathione and 1 μM hematin. Assays are performed in duplicate in a final volume of 250 μl. Initially, 5 μd of DMSO vehicle or drug in DMSO are added to 20 μl of 0.1 M Tris-HCl buffer, pH 7.4 containing 10 mM EDTA in wells of a 96-deepwell polypropylene titre plate. 200 μl of the microsomal preparation are then added and pre-incubated for 15 min at room temperature before addition of 25 μl of […] in 0.1 M Tris-HCl and 10 mM EDTA, pH 7.4. […] Cyclooxygenase activity is defined as the difference between PGE2 levels in samples incubated in the presence of arachidonic acid and ethanol vehicle.
row,Structure (SMILES),IC50
1,"CC1(C)OC(=O)C(Oc2cccc(F)c2)=C1c1ccc(S(C)(=O)=O)cc1 [Example 2, 3-(3-Fluorophenoxy)-5,5-dimethyl-4-(4-(methylsulfonyl)phenyl)-5H-furan-2-one]",3 µM
2,"CC1(C)OC(=O)C(Oc2ccc(F)cc2F)=C1c1ccc(S(C)(=O)=O)cc1 [Example 5, 3-(2,4-Difluorophenoxy)-5,5-dimethyl-4-(4-(methylsulfonyl)phenyl)-5H-furan-2-one]",0.3 µM
3,"CC1(C)OC(=O)C(Oc2ccc(Cl)cc2)=C1c1ccc(S(C)(=O)=O)cc1 [Example 6, 3-(4-Chlorophenoxy)-5,5-dimethyl-4-(4-(methylsulfonyl)phenyl)-5H-furan-2-one]",0.4 µM
4,"CC1(C)OC(=O)C(Oc2ccc(Cl)c(Cl)c2)=C1c1ccc(S(C)(=O)=O)cc1 [Example 7, 3-(3,4-Dichlorophenoxy)-5,5-dimethyl-4-(4-(methylsulfonyl)phenyl)-5H-furan-2-one]",1 µM
5,"CC1(C)OC(=O)C(Oc2ccc(F)cc2)=C1c1ccc(S(C)(=O)=O)cc1 [Example 8, 3-(4-Fluorophenoxy)-5,5-dimethyl-4-(4-(methylsulfonyl)phenyl)-5H-furan-2-one]",0.3 µM
6,"CC1(C)OC(=O)C(Sc2ccc(F)cc2)=C1c1ccc(S(C)(=O)=O)cc1 [Example 9, 3-(4-Fluorophenylthio)-5,5-dimethyl-4-(4-(methylsulfonyl)phenyl)-5H-furan-2-one]",> 10 µM
7,"CC1(C)OC(=O)C(Sc2cc(F)cc(F)c2)=C1c1ccc(S(C)(=O)=O)cc1 [Example 10, 3-(3,5-Difluorophenylthio)-5,5-dimethyl-4-(4-(methylsulfonyl)phenyl)-5H-furan-2-one]",> 10 µM
8,"CC1(C)OC(=O)C(Nc2ccccc2)=C1c1ccc(S(C)(=O)=O)cc1 [Example 12, 3-(N-Phenylamino)-5,5-dimethyl-4-(4-(methylsulfonyl)phenyl)-5H-furan-2-one]",> 10 µM
9,"CN(C1=C(c2ccc(S(C)(=O)=O)cc2)C(C)(C)OC1=O)c1ccccc1 [Example 13, 3-(N-Methyl-N-phenylamino)-5,5-dimethyl-4-(4-(methylsulfonyl)phenyl)-5H-furan-2-one]",> 10 µM
10,"CC1(C)OC(=O)C(Cc2ccccc2)=C1c1ccc(S(C)(=O)=O)cc1 [Example 16, 3-Benzyl-5,5-dimethyl-4-(4-(methylsulfonyl)phenyl)-5H-furan-2-one]",> 10 µM
11,"CC1(C)OC(=O)C(C(O)c2ccc(F)c(F)c2)=C1c1ccc(S(C)(=O)=O)cc1 (stereo not drawn) [Example 17, 3-(3,4-Difluorophenylhydroxymethyl)-5,5-dimethyl-4-(4-(methylsulfonyl)phenyl)-5H-furan-2-one]",> 10 µM
12,"CC1(C)OC(=O)C(C(=O)c2ccc(F)c(F)c2)=C1c1ccc(S(C)(=O)=O)cc1 [Example 18, 3-(3,4-Difluorobenzoyl)-5,5-dimethyl-4-(4-(methylsulfonyl)phenyl)-5H-furan-2-one]",> 30 µM
13,"CC1(C)OC(=O)C(C(=O)c2ccccc2)=C1c1ccc(S(C)(=O)=O)cc1 [Example 19b, 3-Benzoyl-5,5-dimethyl-4-(4-(methylsulfonyl)phenyl)-5H-furan-2-one]",> 10 µM
14,"CS(=O)(=O)c1ccc(C2=C(Oc3ccccc3)C(=O)OC23CCCC3)cc1 [Example 20, 4-(4-(Methylsulfonyl)phenyl)-3-phenoxy-1-oxaspiro[4.4]non-3-en-2-one]",0.3 µM
15,"CS(=O)(=O)c1ccc(C2=C(Sc3ccccc3)C(=O)OC23CCCC3)cc1 [Example 21, 4-(4-(Methylsulfonyl)phenyl)-3-phenylthio-1-oxaspiro[4.4]non-3-en-2-one]",> 10 µM
16,"NS(=O)(=O)c1ccc(C2=C(Sc3ccccc3)C(=O)OC23CCCC3)cc1 [Example 22, 4-(2-Oxo-3-phenylthio-1-oxa-spiro[4,4]non-3-en-4-yl)benzene-sulfonamide]",> 1 µM
17,"CC1(C)OC(=O)C(Cc2ccc(F)cc2)=C1c1ccc(S(C)(=O)=O)cc1 [Example 23, 3-(4-Fluorobenzyl)-5,5-dimethyl-4-(4-(methylsulfonyl)phenyl)-5H-furan-2-one]",> 30 µM
18,"CC1(C)OC(=O)C(Oc2ccccn2)=C1c1ccc(S(C)(=O)=O)cc1 [Example 26, 3-(2-pyridyloxy)-5,5-dimethyl-4-(4-(methylsulfonyl)phenyl)-5H-furan-2-one]",~10 µM
19,"Cc1cccc(OC2=C(c3ccc(S(C)(=O)=O)cc3)C(C)(C)OC2=O)n1 [Example 27, 3-(6-Methyl-2-pyridyloxy)-5,5-dimethyl-4-(4-(methylsulfonyl)phenyl)-5H-furan-2-one]",> 10 µM

# Target: T2, COX-1
# Assay: Human whole blood assay, COX-1 (clotting-induced TxB2 production)
# Format: cell-based
# Settings: Table III, read-out: COX-1 (IC50) HWB
# From the text: as §1
# B. COX-1 (Clotting-induced TxB2 production)
# Fresh blood is collected into vacutainers containing no anticoagulants. Aliquots of 500 μL are immediately transferred to siliconized microcentrifuge tubes preloaded with 2 μL of either DMSO or a test compound at final concentrations varying from 10 nM to 30 μM. The tubes are vortexed and incubated at 37° C. for 1 hour to allow blood to clot. At the end of incubation, serum is obtained by centrifugation (12,000×g for 5 min.). A 100 μL aliquot of serum is mixed with 400 μL of methanol for protein precipitation.
row,Structure (SMILES),IC50
1,"CC1(C)OC(=O)C(Oc2cc(F)cc(F)c2)=C1c1ccc(S(C)(=O)=O)cc1 [Example 3, 3-(3,5-Difluorophenoxy)-5,5-dimethyl-4-(4-(methylsulfonyl)phenyl)-5H-furan-2-one]",6.1 µM
